Test results taken from patent US6869929B2, “Use of transcription factors for treating inflammation and other diseases” (Beth Israel Deaconess Medical Center, priority 2000, dated 2005).
One block for each molecule: values may come before it.

Columns and labels:
ESE-1 [1] = assay: ESE-1 mRNA RT-PCR in RA synovial fibroblasts; assay type: cell-based, human; conditions: for ESE-1 mRNA expression, agent alone: 4th passage RA synovial fibroblasts
Experimental: Tissues from patients with rheumatoid arthritis (RA) were obtained as discarded materials from total joint replacement surgery or synovectomy. RA synovial tissue samples were cultured for the generation of adherent synovial fibroblasts. Dispersed synovial tissues were prepared by a previously published method (Goldring, S. R., et al. 1983. The synovial-like membrane at the bone-cement interface in loose total hip replacements and its proposed role in bone lysis. J Bone Joint Surg 65:575-84). Cells were subjected to 2-4 passages and stimulated with IL-1β (R&D Systems) at 100 pg/ml or with TNF-α (R&D Systems) at 5 ng/ml.
(§1) cDNAs were generated from 1 μg of total RNA using Ready-To-Go™ You-prime First-Strand Beads (Amersham Pharmacia Biotech Inc). RT-PCR amplifications of 0.1 μg cDNA were carried out using a MJResearch thermal cycler PTC-100 as follows: 5 min at 94° C., 20-37 cycles of 30 sec at 94° C., 30 sec at 56° C., and 30 sec at 72° C., followed by 5 min at 72° C. (Oettgen, P., et al. 2000, J Biol Chem 275:1216-25). The sequences of the human ESE-1 primers and the primers for human GAPDH were as described (Oettgen, P., et al. 1999, J Biol Chem 274:29439-52).
The synovium in RA is comprised of heterogeneous cell populations including monocyte/macrophages, lymphocytes and synovial fibroblasts. To evaluate whether ESE-1 expression in synovial fibroblasts is regulated by proinflammatory cytokines, 4th passage synovial fibroblasts isolated from RA synovium were stimulated for different times with IL-1β in the absence or presence of indomethacin. […] They also indicate that cytokine-induced prostaglandins may modulate steady state ESE-1 mRNA levels. […] We, therefore, focused our attention in further studies on IL-1β.

ESE-1 [2] = assay: ESE-1 mRNA Northern blot in LB-12 osteoblasts; assay type: cell-based, human; conditions: LB-12 cells
Experimental: (§2) U-87 Mg and U-138 Mg (human glioma), THP-1 (human monocytic), RAW 264.7 (murine monocytic), LB-12 (human osteoblast-like large T antigen transformed bone marrow stromal cells), and human chondrocytes were grown and treated with cytokines as described (Apperley, J., et al. 1990. J Bone Mineral Res. 5:S93; Goldring, M. B., et al. 1994. J Clin Invest 94:2307-16; Goldring, S. R., et al. 1983. J Bone Joint Surg 65:575-84; Libermann, T. A., et al. 1987. Embo J. 6:1627-1632).
Total RNA was harvested using QIAshreder (Qiagen) and RNeasy® Mini Kit (Quiagen) or Trizol (Gibco BRL). Poly A^+ RNA was prepared with MicroPoly(A) Pure (Ambion). Northern blots (5 μg total RNA) were hybridized using a full length ESE-1 cDNA probe as described (Oettgen, P., et al. et al. 1997, Mol Cell Biol 17:4419-33.).
Osteoblasts, the bone cells responsible for bone formation, represent another connective tissue cell target of inflammatory cytokines in joint disorders (Bogoch, E. R., and E. Moran. 1998, Can J Surg 41:264-71). […] LB-12 cells were incubated for different times in the absence or presence of IL-1β. […] Since the rapid, but transient induction of ESE-1 resembles that of immediate early genes, we tested the effect of the protein synthesis inhibitor cycloheximide which superinduces expression of certain genes due to mRNA stabilization. Cycloheximide alone had no effect, but superinduced IL-1β-mediated ESE-1 mRNA expression (FIG. 11d).

ESE-1 [3] = assay: ESE-1 mRNA RT-PCR in immortalized chondrocytes T/C28a2, C28/I2, C20/A4; assay type: cell-based, human; conditions: T/C28a2, C28/I2 and C20/A4 chondrocytes; 24 hours
Experimental: as §2, §1
To test the hypothesis that ESE-1 is a mediator of cytokine responses in non-epithelial cell types, we analyzed ESE-1 expression in response to a variety of cytokines in several connective tissue cell types. Immortalized human chondrocytes, T/C28a2, C28/I2, and C20/A4 (Goldring, M. B., et al. 1994, J Clin Invest 94:2307-16), were stimulated with IL-1β, TNF-α and IFN-γ for 24 hours. […] The kinetics of ESE-1 induction was explored in a time course experiment with T/ C28a2 chondrocytes.

COL2A1 promoter = COL2A1 promoter luciferase cotransfection in T/C-28a2 cells; assay type: cell-based, human; conditions: for inhibition of COL2A1/4.0 activity: T/C-28a2, pGL3 construct, highest concentrations tested
Experimental: The COL2A1 sequence spanning −577 to +3428 bp (Goldring M B, et al, J Cell Biochem 1994;54:85-99, 39) was cloned into the pGL2-basic (pGL2B) luciferase reporter gene vector (Promega,) and named pGL2-COL2/4.0. Deletion constructs containing −577/+125 bp, −131/+125 bp, −87/+125 bp were prepared by enzyme digestion of pGL2-COL2/4.0 using PstI, ApaI, and PuuII, followed by ligation. For the deletion constructs −45/+125 bp, −83/+7 bp, and −45/+7 bp, PCR products were generated as described (Osaki et al.) and cloned into the pGL2-Basic luciferase vector. These reporter constructs were used as templates to generate point mutations or internal deletions by PCR mutagenesis employing the oligonucleotides listed in FIG. 16 and the QuikChange™ Site-Directed Mutagenesis Kit (Stratagene, La Jolla, Calif.). DNA fragments containing point mutations were then cloned into the pGL2B vector and confirmed by DNA sequencing using a G2 primer on pGL2 DNA. Deletions were also made in the −577/+127 bp COL2A1 promoter construct using the ExSite™ PCR-Based Site-Directed Mutagenesis Kit (Stratagene).
Transient transfection experiments were carried out in C-28/I2 cells using LipofectAMINE PLUS™ Reagent (Life Technologies). Cells were seeded in 6-well tissue culture plates at 3.5×10^5 cells/well in DMEM/F12 containing 10% FCS 24 h prior to transfection. For each well, 1 μg of COL2A1-luciferase construct, 6 μl of PLUS reagent and 92 μl of serum-free DMEM/F12 were mixed and incubated for 15 min at room temperature. LipofectAMINE+ reagent (4 μl) in 100 μl of serum-free medium was then added to each reaction mixture and incubation was continued for an additional 30 min at room temperature. Finally, the transfection mixture was combined with 800 μl of serum-free medium and the lipid-nucleic acid complex was transferred to the washed cell monolayer in each well. After incubation for 4 h at 37° C., the transfection mix was diluted with an equal volume of DMEM/F12 containing 2% Nutridoma-SP, and incubation continued for 18 h in the absence or presence of IL-1β. For cotransfections, the cells were incubated for 24 h to permit expression of recombinant proteins prior to treatment with IL-1β for a further 18 h. Cell lysates were prepared by extraction with 200 μl of Reporter Lysis Buffer (Promega) and the protein content was determined using the Coomassie Plus Protein Assay Reagent (PIERCE). Luciferase activities were determined by chemiluminescence assay using the Autolumat LB953 luminometer (EG&G Berthold, Oak Ridge, Tenn.), normalized to the amount of protein. Each data point was calculated as the mean±standard deviation for three independently transfected cultures from one representative of at least three experiments. […]

[4] = target: T1, p65 subunit of NF-kB, full-length, in vitro translated (UniProt Q04206 1-551, limits assumed, 35S-methionine labeled (pull-down assay)); assay: GST pull-down, 35S-labeled in vitro translated p65
T1 construct: mature; In the pull-down it was translated in rabbit reticulocyte lysate with 35S-methionine; in the cotransfections it was expressed from pCI; also called p65 Rel domain protein
T1 sequence (Q04206 whole entry, the tested form may be a part): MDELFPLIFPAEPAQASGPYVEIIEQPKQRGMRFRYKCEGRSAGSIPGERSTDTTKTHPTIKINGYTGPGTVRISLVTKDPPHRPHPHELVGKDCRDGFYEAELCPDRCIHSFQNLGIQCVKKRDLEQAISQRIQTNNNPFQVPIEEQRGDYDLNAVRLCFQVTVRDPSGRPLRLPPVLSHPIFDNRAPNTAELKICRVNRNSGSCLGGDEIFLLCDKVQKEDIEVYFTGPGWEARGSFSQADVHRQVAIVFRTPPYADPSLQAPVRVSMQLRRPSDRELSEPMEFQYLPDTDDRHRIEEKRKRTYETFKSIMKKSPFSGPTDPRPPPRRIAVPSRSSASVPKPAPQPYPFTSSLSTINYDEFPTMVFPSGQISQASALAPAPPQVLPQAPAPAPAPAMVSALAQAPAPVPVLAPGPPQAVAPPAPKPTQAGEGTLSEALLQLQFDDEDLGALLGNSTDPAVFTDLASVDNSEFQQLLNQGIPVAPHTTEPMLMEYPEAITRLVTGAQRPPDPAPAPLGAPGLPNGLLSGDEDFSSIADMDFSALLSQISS
Experimental: A series of GST-ESE-1 fusion proteins were generated by PCR with specific primers to contain in frame restriction enzyme sites and sequenced to confirm that there were no mutations introduced by the PCR. GST-ESE-1 fusion proteins were prepared as previously described. 35S-methionine labeled in vitro translated full-length p50 and p65 were incubated with equal amounts of GST-ESE-1 fusion proteins or GST on agarose beads in 200 ul of NETN(0.5% Nonidet P-40, 1 mM EDTA, 20 mM Tris-HCl, pH 8.0, 100 mM NaCl) for 3 h at 4 degrees C. with gentle shaking. Bound p50 or p65 proteins were then eluted after three washings with NETN buffer and analyzed on a 12% SDS-polyacrylamide gel.

NOS2 promoter [5] = assay: ESE-1 transactivation of NOS2 promoter luciferase reporter, cotransfection in RAW cells; assay type: cell-based, murine; conditions: cotransfected with ESE-1
Experimental: (§3) A 1516 and 265 bp fragment corresponding to nucleotides (−1485 to +31) and (−234 to +31) of the murine NOS2 gene promoter were subcloned into the PGL2 luciferase reporter(Promega).
(§4) Co-transfections of 2×10^5 RAW cells or RASMCs were carried out with 0.6 μg reporter gene construct DNA and 0.6 μg expression vector DNA using 6 μl lipofectamine (Gibco-BRL) as described (Oettgen, P., et al. 1996. Characterization of NERF, a novel transcription factor related to the Ets factor ELF-1. Mol Cell Biol 16:5091-106). The cells were harvested 16 hours after transfection and assayed for luciferase activity. Transfections for every construct were performed independently in duplicates and repeated 3 times with two different plasmid preparations with similar results. Cotransfection of a second plasmid for determination of transfection efficiency was omitted because potential artifacts with this technique have been reported and because many commonly used viral promoters contain potential binding sites for ets factors (Farr, A., and A. Roman. 1992. A pitfall of using a second plasmid to determine transfection efficiency. Nucleic Acids Res 20:920).
The ability of ESE-1 DN 1 to block transactivation of the NOS2 promoter was tested in RAW cells. Cotransfection of ESE-1 with the NOS2 promoter led to an approximate 12-fold increase in transactivation. […]

NOS2 promoter [6] = assay: LPS (endotoxin) induction of NOS2 promoter luciferase reporter in RAW cells; assay type: cell-based, murine
Experimental: as §3, §4
In the presence of LPS, the ESE-1 DN1 protein blocked induction of the NOS2 promoter by LPS by approximately 70-75%. (See FIG. 21C).

Molecule: COc1ccc2c(c1)c(CC(=O)O)c(C)n2C(=O)c1ccc(Cl)cc1 [indomethacin]
- ESE-1 mRNA expression, agent alone (ESE-1 [1]): did not express detectable ESE-1 mRNA
- IL-1β-induced ESE-1 mRNA levels in presence of agent (ESE-1 [1]; RA synovial fibroblasts, 6 hours, 24 hours, 5 days): stabilized and did not decline even after 5 days

Molecule: C[C@]12CCC(=O)C=C1CC[C@@H]1[C@@H]2[C@@H](O)C[C@@]2(C)[C@H]1CC[C@]2(O)C(=O)CO [Hydrocortisone]
- IL-1β-mediated ESE-1 mRNA expression in presence of agent (ESE-1 [2]): strongly enhanced
- ESE-1 mRNA expression, agent alone (ESE-1 [2]; 1, 2, 6, 24 hours): did not induce

Molecule: IFN-γ: cytokine tested on chondrocytes
- ESE-1 expression (ESE-1 [3]): failed to induce ESE-1 expression

Molecule: pCI-NERF2: expression vector for the ETS factor NERF-2
- inhibition of COL2A1/4.0 activity (COL2A1 promoter): 40%

Molecule: TNF-α
- ESE-1 mRNA expression, agent alone (ESE-1 [1]): minimal ESE-1 induction
- ESE-1 expression (ESE-1 [3]): stimulated ESE-1 expression in T/ C28a2 cells to similar levels as IL-1β, but only weakly in C28/I2 and C20/A4 cells

Molecule: ESE-3: ESE family Ets factor overexpressed by cotransfection
- inhibition of pGL2-COL2/4.0 (COL2A1 promoter; highest concentration tested): ~60%

Molecule: pCI-ELF1: expression vector for the ETS factor ELF-1
- inhibition of COL2A1/4.0 activity (COL2A1 promoter): 65%

- binding result [4]: no binding
B1: GST-ESE-1 fusion protein, full length ESE-1 (other, UniProt P78545 1-371, looked up)
chain: MAATCEISNIFSNYFSAMYSSEDSTLASVPPAATFGADDLVLTLSNPQMSLEGTEKASWLGEQPQFWSKTQVLDWISYQVEKNKYDASAIDFSRCDMDGATLCNCALEELRLVFGPLGDQLHAQLRDLTSSSSDELSWIIELLEKDGMAFQEALDPGPFDQGSPFAQELLDDGQQASPYHPGSCGAGAPSPGSSDVSTAGTGASRSSHSSDSGGSDVDLDPTDGKLFPSDGFRDCKKGDPKHGKRKRGRPRKLSKEYWDCLEGKKSKHAPRGTHLWEFIRDILIHPELNEGLMKWENRHEGVFKFLRSEAVAQLWGQKKKNSNMTYEKLSRAMRYYYKREILERVDGRRLVYKFGKNSSGWKEEEVLQSRN
notes: mature; GST fusion on agarose beads in the pull-down; also called full length ESE-1 protein; not shown: glutathione S-transferase (GST) fusion partner

B2: ESE-1 DN1: dominant negative ESE-1 protein lacking amino acids 26 through 192, expressed from pCI plasmid (SEQ ID NO: 39) (protein, listed as Homo sapiens)
chain: MAATCEISNIFSNYFSAMYSSEDSTAGTGASRSSHSSDSGGSDVDLDPTDGKLFPSDGFRDCKKGDPKHGKRKRGRPRKLSKEYWDCLEGKKSKHAPRGTHLWEFIRDILIHPELNEGLMKWENRHEGVFKFLRSEAVAQLWGQKKKNSNMTYEKLSRAMRYYYKREILERVDGRRLVYKFGKNSSGWKEEEVLQSRN
- ESE-1 transactivation of the NOS2 promoter blocked by (NOS2 promoter [5]): 60-70%
- induction of the NOS2 promoter by LPS blocked by (NOS2 promoter [6]; in the presence of LPS): 70-75%
- basal NOS2 promoter activity (NOS2 promoter [6]; prior to LPS induction): slight reduction
